Columns and labels:
Test in all cases: Enzymatic Assay
Conditions in all cases: pH 8; 37 °C
[1] = target: UDP-N-acetylmuramate--L-alanine ligase (Escherichia coli (strain K12), UniProt P17952)
Description: (§1) Compounds were tested for their inhibition of the addition of L-Ala, D-Glu, L-Lys or D-Ala-D-Ala to nucleotide precursors catalyzed by MurC from Escherichia coli, MurD from E. coli, MurE from Staphylococcus aureus, and MurF from E coli. The detection of the orthophosphate generated during the reaction was based on the colorimetric Malachite green method.

[2] = target: T1, UDP-N-acetylmuramoyl-L-alanyl-D-glutamate--L-lysine ligase (Staphylococcus aureus (strain NCTC 8325 / PS 47), UniProt Q2FZP6)
T1 sequence (Q2FZP6 whole entry): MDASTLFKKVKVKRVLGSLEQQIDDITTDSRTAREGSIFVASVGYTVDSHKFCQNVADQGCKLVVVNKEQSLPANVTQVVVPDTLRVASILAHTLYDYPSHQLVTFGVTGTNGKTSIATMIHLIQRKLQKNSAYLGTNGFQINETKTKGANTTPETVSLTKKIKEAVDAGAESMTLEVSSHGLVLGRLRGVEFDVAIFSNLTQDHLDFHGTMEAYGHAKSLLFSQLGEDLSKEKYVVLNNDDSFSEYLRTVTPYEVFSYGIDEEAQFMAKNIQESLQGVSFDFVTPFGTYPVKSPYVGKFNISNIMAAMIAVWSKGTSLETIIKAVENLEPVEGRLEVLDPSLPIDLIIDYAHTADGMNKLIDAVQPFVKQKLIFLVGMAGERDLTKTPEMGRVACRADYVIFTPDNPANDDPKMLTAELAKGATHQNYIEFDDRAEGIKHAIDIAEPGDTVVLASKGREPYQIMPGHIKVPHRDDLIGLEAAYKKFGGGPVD
Description: as §1

[3] = target: T2, UDP-N-acetylmuramoyl-tripeptide--D-alanyl-D-alanine ligase (Escherichia coli (strain K12), UniProt P11880)
T2 sequence (P11880 whole entry): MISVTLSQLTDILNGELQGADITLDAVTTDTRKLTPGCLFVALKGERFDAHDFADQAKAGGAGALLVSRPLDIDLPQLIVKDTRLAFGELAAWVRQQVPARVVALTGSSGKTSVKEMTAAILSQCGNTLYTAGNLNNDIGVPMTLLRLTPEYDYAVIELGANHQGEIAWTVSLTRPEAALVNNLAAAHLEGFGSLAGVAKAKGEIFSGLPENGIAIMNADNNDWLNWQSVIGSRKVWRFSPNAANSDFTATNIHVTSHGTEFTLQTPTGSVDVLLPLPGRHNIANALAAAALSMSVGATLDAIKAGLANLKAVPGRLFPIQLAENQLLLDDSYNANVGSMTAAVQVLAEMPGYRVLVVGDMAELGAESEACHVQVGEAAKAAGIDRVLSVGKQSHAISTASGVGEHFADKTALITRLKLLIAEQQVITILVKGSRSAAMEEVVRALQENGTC
Description: as §1

UDP-N-acetylmuramate--L-alanine ligase, sequence (P17952 whole entry): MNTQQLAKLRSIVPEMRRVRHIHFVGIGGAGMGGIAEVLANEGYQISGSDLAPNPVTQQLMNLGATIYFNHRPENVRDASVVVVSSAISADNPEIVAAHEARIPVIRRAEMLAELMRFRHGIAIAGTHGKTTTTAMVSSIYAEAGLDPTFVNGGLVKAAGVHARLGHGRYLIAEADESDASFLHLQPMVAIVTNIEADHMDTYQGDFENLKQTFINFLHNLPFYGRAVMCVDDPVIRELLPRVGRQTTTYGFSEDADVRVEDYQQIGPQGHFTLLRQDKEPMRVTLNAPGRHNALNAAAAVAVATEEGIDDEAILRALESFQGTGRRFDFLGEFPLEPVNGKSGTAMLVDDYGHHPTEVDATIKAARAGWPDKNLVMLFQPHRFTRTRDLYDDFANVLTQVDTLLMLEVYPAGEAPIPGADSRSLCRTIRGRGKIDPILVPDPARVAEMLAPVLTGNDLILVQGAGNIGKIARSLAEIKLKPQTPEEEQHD

Row | Compound | IC50 [1] [µM] | IC50 [2] [µM] | IC50 [3] [µM]
1 | O=P(O)(O)OC(CNS(=O)(=O)c1cccc(C(F)(F)F)c1)CN1CCOCC1 (stereo not drawn) [HEA derivative, 7d] | 530 | 160 | 150
2 | COc1ccc(S(=O)(=O)NCC(CN2CCOCC2)OP(=O)(O)O)cc1 (stereo not drawn) | 490 | 6 | 530
3 | Cc1ccc(S(=O)(=O)NCC(CN2CCOCC2)OP(=O)(O)O)cc1 (stereo not drawn) [HEA derivative, 7e] | 540 | 120 | 560
4 | O=P(O)(O)OC(CNS(=O)(=O)c1ccc(F)cc1)CN1CCOCC1 (stereo not drawn) [HEA derivative, 7b] | 790 | 120 | 270
5 | CCc1ccc(S(=O)(=O)NCC(CN2CCOCC2)OP(=O)(O)O)cc1 (stereo not drawn) [HEA derivative, 7f] | 760 | 61 | 360
6 | O=P(O)(O)OC(CNS(=O)(=O)c1ccc(C(F)(F)F)cc1)CN1CCOCC1 (stereo not drawn) [MurC/D/E/F inhibitor (compound 68)] | 200 | 57 | 240
